Experimental findings from PMC12221356, “A repertoire of visible light–sensitive opsins in the deep-sea hydrothermal vent shrimp Rimicaris hybisae” (The Journal of Biological Chemistry, 2025) are described below.

The target of experiment [1] is T1, RhOpn5 (Rimicaris hybisae, UniProt Z9SF72QZI5).
T1 construct: 178 C-terminal residues truncated, C-terminal Rho1D4 tag (ETSQVAPA), human-codon optimized, HEK293T; transcriptome reads SRA SRP339896
T1 sequence (Z9SF72QZI5 1-407 E336Q): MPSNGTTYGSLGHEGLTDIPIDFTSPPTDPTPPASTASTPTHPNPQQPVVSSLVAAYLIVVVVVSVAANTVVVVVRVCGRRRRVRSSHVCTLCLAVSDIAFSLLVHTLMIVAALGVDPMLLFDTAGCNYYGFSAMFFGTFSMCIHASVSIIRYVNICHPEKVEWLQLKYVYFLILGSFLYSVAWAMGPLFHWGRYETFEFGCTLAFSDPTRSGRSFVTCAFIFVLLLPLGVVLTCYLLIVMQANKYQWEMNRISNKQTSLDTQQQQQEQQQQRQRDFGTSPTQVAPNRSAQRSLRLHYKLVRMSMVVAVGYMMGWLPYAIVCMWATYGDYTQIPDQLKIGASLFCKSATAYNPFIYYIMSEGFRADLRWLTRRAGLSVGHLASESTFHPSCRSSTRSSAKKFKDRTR
In words: UV-visible absorption spectroscopy of purified pigment. In kind it is binding. Conditions: covalent (Schiff base, Lys296); pH 8.0 and 6.5; 0 °C; mutation in bovine rhodopsin numbering.

Experiment [2] deals with T2, RhOpn5 (Rimicaris hybisae, UniProt Z9SF72QZI5, E196Q, form not given).
T2 construct: 178 C-terminal residues truncated, C-terminal Rho1D4 tag (ETSQVAPA), human-codon optimized, HEK293T; transcriptome reads SRA SRP339896
T2 sequence (Z9SF72QZI5 1-407 E196Q): T1 sequence (Z9SF72QZI5 1-407 E336Q) with E196Q, Q336E
The experiment is described as above. Conditions: covalent (Schiff base, Lys296); pH 8.0 and 6.5; 0 °C; mutation in bovine rhodopsin numbering. Format: binding.

Experiment [3] concerns the target T3, RhPeropsin (Rimicaris hybisae, UniProt Z9VFR8UU34).
T3 construct: C-terminal Rho1D4 tag (ETSQVAPA), human-codon optimized, expressed in HEK293T, no truncation stated; transcriptome reads SRA SRP339896
T3 sequence (Z9VFR8UU34 1-341): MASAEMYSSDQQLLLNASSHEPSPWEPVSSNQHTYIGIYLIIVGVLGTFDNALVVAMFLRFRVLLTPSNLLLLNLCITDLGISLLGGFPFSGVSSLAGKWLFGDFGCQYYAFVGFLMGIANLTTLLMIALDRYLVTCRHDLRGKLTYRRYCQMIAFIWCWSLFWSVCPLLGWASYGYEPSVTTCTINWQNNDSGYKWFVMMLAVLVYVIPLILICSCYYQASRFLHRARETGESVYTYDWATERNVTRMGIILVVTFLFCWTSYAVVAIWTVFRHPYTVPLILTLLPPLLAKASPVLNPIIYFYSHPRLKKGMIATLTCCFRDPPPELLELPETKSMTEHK
In words: HPLC of retinal isomers after irradiation. In kind it is biochemical. The following applies: covalent (Schiff base, Lys296); photoproduct under yellow light (>500 nm); 0 °C.

The target in experiment [4] is T4, RhOpn5 (Rimicaris hybisae, UniProt Z9SF72QZI5, D98N, form not given).
T4 construct: 178 C-terminal residues truncated, C-terminal Rho1D4 tag (ETSQVAPA), human-codon optimized, HEK293T; transcriptome reads SRA SRP339896
T4 sequence (Z9SF72QZI5 1-407 D98N): T1 sequence (Z9SF72QZI5 1-407 E336Q) with D98N, Q336E
In words: UV-visible absorption spectroscopy of purified pigment. The following applies: covalent (Schiff base, Lys296); pH 8.0 and 6.5; 0 °C; mutation in bovine rhodopsin numbering; counterion mutant. In kind it is binding.

Experiment [5] deals with T5, RhOpn5 (Rimicaris hybisae, UniProt Z9SF72QZI5, E199Q, form not given).
T5 construct: 178 C-terminal residues truncated, C-terminal Rho1D4 tag (ETSQVAPA), human-codon optimized, HEK293T; transcriptome reads SRA SRP339896
T5 sequence (Z9SF72QZI5 1-407 E199Q): T1 sequence (Z9SF72QZI5 1-407 E336Q) with E199Q, Q336E
The description is as above. In kind it is binding. Conditions: covalent (Schiff base, Lys296); pH 8.0 and 6.5; 0 °C; mutation in bovine rhodopsin numbering.

In experiment [6] the target is T6, RhOpn5 (Rimicaris hybisae, UniProt Z9SF72QZI5).
T6 construct: 178 C-terminal residues truncated, C-terminal Rho1D4 tag (ETSQVAPA), human-codon optimized, HEK293T; transcriptome reads SRA SRP339896
T6 sequence (Z9SF72QZI5 1-407): T1 sequence (Z9SF72QZI5 1-407 E336Q) with Q336E
In words: absorption spectroscopy and HPLC of retinal in purified pigment. Format: binding. Conditions: covalent (Schiff base, Lys296); dark state; 0 °C.

Experiment [7] addresses T3, RhPeropsin. The description is as above. The following applies: covalent (Schiff base, Lys296); dark state; photoisomerized under yellow light (>500 nm); 0 °C. In kind it is biochemical.
The target in experiment [8] is T6, RhOpn5. The description is as above. Format: biochemical. The following applies: covalent (Schiff base, Lys296); photoproduct under yellow light (>480 nm); 0 °C.

Where a chain is given by its changes, count along the chain named.

As for `CC1=C(/C=C/C(C)=C/C=C\C(C)=C\C=O)C(C)(C)CCC1` [11-cis-retinal], the “UV-visible absorption spectroscopy of purified pigment” value in experiment [1] was “the E179Q, E182Q, and E286Q mutants did not show pH-dependent spectral changes”; in experiment [2], “the E179Q, E182Q, and E286Q mutants did not show pH-dependent spectral changes”; in experiment [4] it was “the D83N mutant showed a significant pH-dependent change, with a small peak in the visible”; in experiment [5], “the E179Q, E182Q, and E286Q mutants did not show pH-dependent spectral changes”. Moreover, the “HPLC of retinal isomers after irradiation” value in experiment [3] is recorded as “RhPeropsin converts all-trans-retinal to 11-cis-retinal upon visible light absorption”. The “absorption spectroscopy and HPLC of retinal in purified pigment” value in experiment [6] is recorded as “RhOpn5 forms a blue light–sensitive pigment binding 11-cis-retinal in the resting state”.

Consider `CC1=C(/C=C/C(C)=C/C=C/C(C)=C/C=O)C(C)(C)CCC1` [all-trans-retinal], for which the “absorption spectroscopy and HPLC of retinal in purified pigment” value in experiment [7] is “RhPeropsin exclusively binds all-trans-retinal in the dark and produces 11-cis-retinal from all-trans-retinal”; in experiment [8] it was “accompanied by the conversion from 11-cis- to all-trans-retinal”.
